Patent publication US10682371B2, “Small molecule conjugates specifically activated in tumor microenvironment for targeting and use thereof” (priority 2014, dated 2020)
Where two headings read alike, the source gives them in different places.

Key:
Human heart = format: biochemical; details: for Activation Efficiencies (%): Human heart homogenate, 1 mg/ml compound; for Activation ratio (%) in homogenates from different tumor tissues: Human heart, 1 mg/ml
[1] = test system: Human fibrosarcoma HT-1080 tumor tissue homogenate; format: biochemical; details: for Activation Efficiencies (%): Human fibrosarcoma HT-1080 tumor tissue homogenate (30 μg/ml), 1 mg/ml compound; for Activation ratio (%) in homogenates from different tumor tissues: Human fibrosarcoma HT-1080
Procedure, shortened: (§1)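 Protease-driven activation measured in acidized (pH 6.0) tissue homogenates, 100 μg. Incubation at 37°C with compound at 1 mg/ml.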

tumor tissue homogenates = format: biochemical
Procedure, shortened: as §1

[2] = Solubility / formulation test in solvent 1 and solvent 2; format: physicochemical; details: for Concentration achieved, completely dissolved in both solvent 1 and solvent 2: solvent 1 injectable water
Experimental: In Table 11, AAN, AANL and AANK indicate the linkage formed by small peptides in the compounds, A is Ala, N is Asn, L is Leu and K is Lys. […] The dissolution concentration is 10 mg/ml.
B1, B2, B3 and B4 and various control compounds were dried under vacuum, sterilized via gas sterilization, and separately packing in a sterile room. Before animal test, B1, B2, B3 and B4 were dissolved by solvent 1 (injectable water) or solvent 2 (30% alcohol, 70% injectable water) and diluted by injectable water to the desired concentration in sterile room. […] Change in solubility may greatly affect the formulation scheme of a drug.
D1, D2, D3, D4 and various control compounds were dried under vacuum, sterilized via gas sterilization, and separately packing in a sterile room. […] Change in solubility may greatly affect the formulation scheme of a drug.

[3] = test system: Human prostate cancer PC-3 cells / Panc-1 cells; assay: Tumor treatment in nude mice (PC-3 cells purchased, Panc-1 cells injected; Examples 22, 32, 42); format: in vivo; details: for Inhibition on tumor growth, in words: compared with parent drug group (same molar concentration) and control group; for Size of tumor (mm^3) Day 10 / inhibitory rate on tumor Day 10 / Size of tumor (mm^3) Day 24 / inhibitory rate on tumor Day 24: nude mice, IV once weekly for four weeks, Paclitaxel 8 mg/kg
Procedure, shortened: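 Nude mice bearing subcutaneous Panc-1 xenografts (5×10^6 cells on the back) were randomized once tumors reached at least 100 mm^3. Drugs were given intravenously once weekly for four weeks, with saline controls. PC-3 cells were grown in DMEM/10% FBS and used within passage 15.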

4T1 cells = assay: BALB/C mice model for tumor metastasis (4T1, lung metastases); format: in vivo; details: for Inhibitory rate on metastasis / Number of metastasized tumor: IV every three days for 4 times; for Inhibitory effect on tumor metastasis, in words: compared with parent drug group and control group
Procedure, shortened: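 Read-out: lung metastasis count under anatomical microscope after Bouin's staining, day 27. Treatment (IV every three days ×4, saline for controls) started after surgical removal of the ~1.5 cm subcutaneous tumor grown from 10^6 4T1 cells (passage ≤15) in BALB/C mice.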

BALB/C mice = assay: Maximum tolerated dose (MTD) / acute toxicity by single intravenous injection; details: for MTD (maximum tolerated dose): intravenous injection, one time
[4] = 4T1, BALB/C mice, lung, day 27, S1′-S4′ 12 mg/kg, Paclitaxel 4 mg/kg
[5] = BALB/C mice receiving 90 mg/kg injection
[6] = Table 28, BALB/C mice, 4T1, lung metastases day 27, A1-A4 12 mg/kg, Paclitaxel 4 mg/kg
[7] = single intravenous injection, 125 mg/kg, 10 BALB/C mice per group
[8] = single intravenous injection, 150 mg/kg, 10 BALB/C mice per group
[9] = single intravenous injection, 175 mg/kg, 10 BALB/C mice per group
[10] = single intravenous injection, 200 mg/kg, 10 BALB/C mice per group
[11] = Table 50, BALB/C mice, 4T1, lung metastases day 27, D1-D4 25 mg/kg, Docetaxel 4.2 mg/kg

In the case of “4-N—(N—(N—(N-(6-maleimido caproyl)-L-alanyl)-L-alanyl)-L-asparaginyl)-amino benzyl alcohol-MMAE-carbamate [Compound S6]”, the “Activation Efficiencies (%)” value (Human heart) was 5.3%, the “Activation Efficiencies (%)” value [1] was 24.3% and the “Activation efficiency by tumor tissue, in words” value (from here on “Activation efficiency”) (tumor tissue homogenates) was “relatively low activation efficiency”.

In the case of `COCCOCC(=O)N[C@H](C)C(=O)N[C@H](C)C(=O)N[C@H](CC(N)=O)C(=O)Nc1ccc(COC(=O)OC(C(=O)OC2C[C@@]3(O)C(OC(=O)c4ccccc4)[C@@H]4C5(OC(C)=O)COC5C[C@H](O)[C@@]4(C)C(=O)[C@H](OC(C)=O)C(=C2C)C3(C)C)[C@@H](NC(=O)c2ccccc2)c2ccccc2)cc1` (stereo in doubt) [S1′, 2-(2-methoxyethoxy) acetylamino-L-Ala-L-Ala-L-Asn-p-amino-benzyl-paclitaxel], the “Activation ratio (%) in homogenates from different tumor tissues” value (Human heart; 37°) was “none”, the “Activation ratio (%) in homogenates from different tumor tissues” value ([1]; 100 μg acidized homogenate pH6.0, 1 mg/ml, 37°) was 74.7% and the “Activation efficiency” value (tumor tissue homogenates) was “highest activation efficiency among the screened compounds”. The “solubility in Solvent 1” value ([2]; Solvent 1 injectable water, dissolution concentration 10 mg/ml) was “soluble”, the “solubility in Solvent 2” value ([2]; Solvent 2: 50% injectable water, 45%-49% propanediol, 1%-5% Tween80, dissolution concentration 10 mg/ml) was “soluble” and the “Concentration achieved, completely dissolved in both solvent 1 and solvent 2” value ([2]; solvent 2 50% injectable water, 42%-49% propanediol, 1%-8% Tween80) was 10000 µg/mL. The “Inhibition on tumor growth, in words” value [3] was “greatly improved”, the “Size of tumor (mm^3) Day 10” value ([3]; S1′-S4′ 24 mg/kg) was 76.42 ± 14.96 mm^3 and the “inhibitory rate on tumor Day 10” value ([3]; S1′-S4′ 24 mg/kg) was 35.7%. For the same compound, the “Size of tumor (mm^3) Day 24” value ([3]; S1′-S4′ 24 mg/kg) was 84.62 ± 45.94 mm^3, the “inhibitory rate on tumor Day 24” value ([3]; S1′-S4′ 24 mg/kg) was 66.1% and the “Inhibitory rate on metastasis” value (4T1 cells; [4]) was 99.2%. For the same compound, the “Number of metastasized tumor” value (4T1 cells; [4]) was 2 ± 3, the “Inhibitory effect on tumor metastasis, in words” value (“Inhibitory effect” below) (4T1 cells) was “greatly improved” and the “Behaviors and death observed” value (BALB/C mice; [5]) was “no pilo-erection, hair tousle and lackluster, lethargy, stoop, irritable reaction and death”. For the same compound, the “MTD (maximum tolerated dose)” value (BALB/C mice; BALB/C mice) was “about 90 mg/kg”, the “Mortality rate (%)” value (BALB/C mice; BALB/C mice, single iv, 125 mg/kg) was 0% and the “Number of dead animal” value (BALB/C mice; BALB/C mice, single iv, 125 mg/kg, 10 animals) was 0. The “Mortality rate (%)” value (BALB/C mice; BALB/C mice, single iv, 150 mg/kg) was 0%, the “Number of dead animal” value (BALB/C mice; BALB/C mice, single iv, 150 mg/kg, 10 animals) was 0 and the “Mortality rate (%)” value (BALB/C mice; BALB/C mice, single iv, 175 mg/kg) was 0%. For the same compound, the “Number of dead animal” value (BALB/C mice; BALB/C mice, single iv, 175 mg/kg, 10 animals) was 0, the “Mortality rate (%)” value (BALB/C mice; BALB/C mice, single iv, 200 mg/kg) was 10% and the “Number of dead animal” value (BALB/C mice; BALB/C mice, single iv, 200 mg/kg, 10 animals) was 1.

With `COCCOCC(=O)NCCCC[C@H](NC(=O)COCCOC)C(=O)N[C@H](C)C(=O)N[C@H](C)C(=O)N[C@H](CC(N)=O)C(=O)Nc1ccc(COC(=O)OC(C(=O)OC2C[C@@]3(O)[C@@H](OC(=O)c4ccccc4)[C@H]4[C@](C)(C(=O)[C@H](OC(C)=O)C(=C2C)C3(C)C)[C@@H](O)CC2OC[C@]24OC(C)=O)[C@@H](NC(=O)c2ccccc2)c2ccccc2)cc1` (stereo partly drawn) [Compound A1] the “Activation ratio (%) in homogenates from different tumor tissues” value (Human heart; acidized homogenate pH6.0, Paclitaxel release by HPLC) was “none”, the “Activation ratio (%) in homogenates from different tumor tissues” value ([1]; 1 mg/ml, 100 μg acidized homogenate pH6.0, Paclitaxel release by HPLC) was 77.7% and the “Activation efficiency” value (tumor tissue homogenates) was “highest activation efficiency among the screened compounds”. For the same compound, the “solubility in Solvent 1” value ([2]; solvent 1 (injectable water), Table 22, Paclitaxel series) was “insoluble”, the “Concentration achieved, completely dissolved in both solvent 1 and solvent 2” value ([2]; solvent 2 45% alcohol, 55% injectable water) was 10000 µg/mL and the “solubility in Solvent 2” value ([2]; solvent 2 (45% alcohol, 55% injectable water), Table 22, Paclitaxel series) was “soluble”. The “Solubility in water, in words” value ([2]; water) was “can directly dissolve in water”, the “Size of tumor (mm^3) Day 10” value ([3]; Table 26, A1-A4 24 mg/kg) was 85.16 ± 58.4 mm^3 and the “inhibitory rate on tumor Day 10” value ([3]; Table 26, A1-A4 24 mg/kg) was 71.1%. The “Size of tumor (mm^3) Day 24” value ([3]; Table 26, A1-A4 24 mg/kg) was 89.78 ± 63.7 mm^3, the “inhibitory rate on tumor Day 24” value ([3]; Table 26, A1-A4 24 mg/kg) was 76.4% and the “Inhibition on tumor growth, in words” value [3] was “greatly improved”. The “Inhibitory rate on metastasis” value (4T1 cells; [6]) was 97.9%, the “Number of metastasized tumor” value (4T1 cells; [6]) was 3 ± 4 and the “Inhibitory effect” value (4T1 cells) was “greatly improved”. The “Behaviors and death observed” value (BALB/C mice; [5]) was “no pilo-erection, hair tousle and lackluster, lethargy, stoop, irritable reaction and death”, the “MTD (maximum tolerated dose)” value (BALB/C mice; BALB/C mice) was “about 90 mg/kg” and the “Mortality rate (%)” value (BALB/C mice; [7]) was 0%. For the same compound, the “Number of dead animal” value (BALB/C mice; [7]) was 0, the “Mortality rate (%)” value (BALB/C mice; [8]) was 0% and the “Number of dead animal” value (BALB/C mice; [8]) was 0. The “Mortality rate (%)” value (BALB/C mice; [9]) was 0%, the “Number of dead animal” value (BALB/C mice; [9]) was 0 and the “Mortality rate (%)” value (BALB/C mice; [10]) was 0%. The “Number of dead animal” value (BALB/C mice; [10]) was 0.

With `COCCOCC(=O)N[C@H](C)C(=O)N[C@H](C)C(=O)N[C@H](CC(N)=O)C(=O)Nc1ccc(COC(=O)OC(C(=O)OC2C[C@@]3(O)[C@@H](OC(=O)c4ccccc4)[C@H]4[C@](C)(C(=O)[C@H](O)C(=C2C)C3(C)C)[C@@H](O)CC2OC[C@]24OC(C)=O)[C@@H](NC(=O)OC(C)(C)C)c2ccccc2)cc1` (stereo partly drawn) [Compound D1, 2-(2-methoxyethoxy) acetyl-L-Ala-L-Ala-L-Asn-4-amino benzyl-Docetaxel] the “Activation ratio (%) in homogenates from different tumor tissues” value ([1]; Table 45, 1 mg/ml, 100 μg acidized homogenate, Docetaxel release by HPLC) was 77.23%, the “Activation efficiency” value (tumor tissue homogenates) was “highest activation efficiency” and the “solubility in Solvent 1” value ([2]; Table 44, second column (head repeats Solvent 1), text: solvent 2 (45% alcohol, 55% injectable water)) was “soluble”. For the same compound, the “solubility in Solvent 1” value ([2]; solvent 1 (injectable water), Table 44, first column, Docetaxel D series) was “insoluble”, the “Inhibitory rate on metastasis” value (4T1 cells; [11]) was 95.2 and the “Number of metastasized tumor” value (4T1 cells; [11]) was 5 ± 3. The “Inhibitory effect” value (4T1 cells) was “greatly improved”, the “Behaviors and death observed” value (BALB/C mice; BALB/C mice receiving 150 mg/kg injection) was “no pilo-erection, hair tousle and lackluster, lethargy, stoop, irritable reaction and death” and the “MTD (maximum tolerated dose)” value (BALB/C mice; BALB/C mice) was “about 150 mg/kg”. For the same compound, the “Mortality rate (%)” value (BALB/C mice; [7]) was 0%, the “Number of dead animal” value (BALB/C mice; [7]) was 0 and the “Mortality rate (%)” value (BALB/C mice; [8]) was 0%. For the same compound, the “Number of dead animal” value (BALB/C mice; [8]) was 0, the “Mortality rate (%)” value (BALB/C mice; [9]) was 0% and the “Number of dead animal” value (BALB/C mice; [9]) was 0. For the same compound, the “Mortality rate (%)” value (BALB/C mice; [10]) was 10% and the “Number of dead animal” value (BALB/C mice; [10]) was 1.

For `CCCCCOC(=O)Nc1nc(=O)n([C@@H]2O[C@H](C)[C@@H](OC(=O)OCc3ccc(NC(=O)[C@H](CC(N)=O)NC(=O)[C@H](C)NC(=O)[C@H](C)NC(=O)CCCCCCC(=O)NO)cc3)[C@H]2O)cc1F` [Compound S3, 4-N—(N—(N—(N-(8-(N-hydroxylamino)-1,8-octandioic acid-1-monoacyl)-L-alanyl)-L-alanyl)-L-asparaginyl)-amino benzyl alcohol-capecitabine-carbonic acid diester], the “Activation Efficiencies (%)” value (Human heart) was 1.6%, the “Activation Efficiencies (%)” value [1] was 94.9% and the “Activation efficiency” value (tumor tissue homogenates) was “very high activation efficiency”.
